The values that follow come from patent publication US10501479B2, “Benzenesulfonyl-asymmetric ureas and medical uses thereof” (HELSINN HEALTHCARE SA, priority 2016, dated 2019).

For orientation: IC50 means the midpoint of a concentration-inhibition curve.

Type in all cases: cell-based
Experiment [1] has as its target T1, GHSR-1a (HEK293/GHSR1a cell line) (Homo sapiens, UniProt Q92847).
T1 construct: expressed in transfected cells; host or cells: HEK293/GHSR1a cell line
The experiment in a line: Ghrelin agonist potency (EC50) with calcium FLIPR assay. The gist of the method: (§1)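 In this assay, compound alone assesses agonism, while compound co-added with ghrelin at 10 nM assesses antagonism. In both modes the calcium-dye signal is tracked for 2 min from t=20 sec.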

Experiment [2] deals with T2, recombinant human ghrelin receptor (HEK293/GRLN) (Homo sapiens, UniProt Q92847).
T2 construct: expressed in transfected cells
The experiment in a line: Ghrelin inverse agonist potency (EC50) with IP-1 (IP-One HTRF) assay. To be noted: IP-1 assay. The gist of the method: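 IP-1 accumulation was measured by HTRF (IP1-d2/Tb-cryptate, 620/665 nm read after 1 hour at room temperature) following 1 hour of compound treatment at 37° C. Cells were HEK293 stably expressing human ghrelin receptor, plated a day earlier on Matrigel. Inverse agonist potency was reported as EC50.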

Experiment [3] concerns the target T1, GHSR-1a (HEK293/GHSR1a cell line). The experiment is described as follows: Ghrelin antagonist potency (IC50) with calcium FLIPR assay, ghrelin 10 nM. Put shortly:
as §1

Setting [4] is: HEK293/GHSR1a, read-out: Activity EC50/EMax: EC50 (ghrelin agonist potency).
Where [5] appears, read: HEK293/GRLN, read-out: Activity EC50 (ghrelin inverse agonist potency).
Setting [6] is: HEK293/GHSR1a, ghrelin 10 nM, read-out: Activity IC50 (ghrelin antagonist potency).
The mark [7] stands for this setting: ghrelin agonist potency, read-out: Activity EC50/EMax.
Setting [8] is: ghrelin inverse agonist potency, read-out: Activity EC50.
Setting [9] is: ghrelin antagonist potency, read-out: Activity IC50.

Like-named read-outs stand apart in the source and are kept apart here.

T1 sequence (Q92847 whole entry): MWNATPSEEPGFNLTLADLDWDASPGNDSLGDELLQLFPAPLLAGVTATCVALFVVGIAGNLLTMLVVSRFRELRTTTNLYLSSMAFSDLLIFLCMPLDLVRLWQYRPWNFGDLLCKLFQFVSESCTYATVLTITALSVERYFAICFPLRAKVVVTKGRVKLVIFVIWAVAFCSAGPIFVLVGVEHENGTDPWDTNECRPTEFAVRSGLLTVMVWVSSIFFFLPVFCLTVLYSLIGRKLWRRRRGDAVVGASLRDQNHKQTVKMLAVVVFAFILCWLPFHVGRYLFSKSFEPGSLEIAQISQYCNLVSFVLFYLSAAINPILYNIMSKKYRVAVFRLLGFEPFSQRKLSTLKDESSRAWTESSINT
T2 sequence (Q92847 whole entry): as above

As for `CC(NC(=O)Nc1ccc(S(=O)(=O)Cc2ccc3c(c2)C[N+](C)([O-])C3)cc1)c1ccccc1` (stereo not drawn) [H1350, 2-methyl-5-(((4-(3-(1-phenylethyl)ureido)phenyl)sulfonyl)methyl)isoindoline 2-oxide], the EC50 in experiment [1] (setting [4]) was more than 30000 nM; in experiment [2] (setting [5]), 7460 nM. In addition, the IC50 in experiment [3] (setting [6]) worked out at 18200 nM.
In the case of `CC(NC(=O)Nc1ccc(S(=O)(=O)Cc2ccc3c(c2)C(F)(F)CNC3)cc1)c1cccc(Cl)c1Cl` (stereo not drawn) [H1547, 1-(1-(2,3-dichlorophenyl)ethyl)-3-(4-(((4,4-difluoro-1,2,3,4-tetrahydroisoquinolin-6-yl)methyl)sulfonyl)phenyl)urea], the results for the EC50 in experiment [1] (setting [7]) and in experiment [2] (setting [8]) were more than 30000 nM and 35 nM, respectively. The IC50 in experiment [3] (setting [9]) was 456 nM.
Regarding `CNC(=O)c1cc(NC(=O)NC(C)c2ccccc2)ccc1S(=O)(=O)Cc1ccc2c(c1)CNC2` (stereo not drawn) [H1529, 2-((isoindolin-5-ylmethyl)sulfonyl)-N-methyl-5-(3-(1-phenylethyl)ureido)benzamide], the EC50 in experiment [1] (setting [7]) is more than 30000 nM; in experiment [2] (setting [8]), 27.8 nM. For the same molecule, the IC50 in experiment [3] (setting [9]) stood at 47.4 nM.
For `CC(NC(=O)N(O)c1ccc(S(=O)(=O)Cc2ccc3c(c2)CN(C)C3)cc1)c1ccccc1` (stereo not drawn) [H1458, 1-hydroxy-1-(4-(((2-methylisoindolin-5-yl)methyl)sulfonyl)phenyl)-3-(1-phenylethyl)urea], in that order: more than 30000 nM, 288 nM and 1170 nM.
Take `COc1cc(S(=O)(=O)Cc2ccc3c(c2)CCN(C)C3)ccc1NC(=O)N[C@H](C)c1ccc(OC)c(Cl)c1Cl` [H1422, (R)-1-(1-(2,3-dichloro-4-methoxyphenyl)ethyl)-3-(2-methoxy-4-(((2-methyl-1,2,3,4-tetrahydroisoquinolin-6-yl)methyl)sulfonyl)phenyl)urea]: the EC50 in experiment [1] (setting [4]) was more than 30000 nM; in experiment [2] (setting [5]), 0.7 nM. In addition, in experiment [3] (setting [6]), the IC50 is 29.4 nM.
On to `COc1cc(S(=O)(=O)Cc2nc3c(s2)CN(C)C3)ccc1NC(=O)N[C@@H](C)c1ccccc1` [H1464, (S)-1-(2-methoxy-4-(((5-methyl-5,6-dihydro-4H-pyrrolo[3,4-d]thiazol-2-yl)methyl)sulfonyl)phenyl)-3-(1-phenylethyl)urea], for which the EC50 in experiment [1] (setting [7]) is more than 30000 nM; in experiment [2] (setting [8]) it was 290 nM. The IC50 in experiment [3] (setting [9]) was determined as 2960 nM.
`CC(NC(=O)Nc1ccc(S(=O)(=O)Cc2ccc(CO)cc2)cc1)c1cccc(Cl)c1Cl` (stereo not drawn) [H1430, 1-(1-(2,3-dichlorophenyl)ethyl)-3-(4-((4-(hydroxymethyl)benzyl)sulfonyl)phenyl)urea]: the EC50 was more than 30000 nM in experiment [1] (setting [4]) and 56.4 nM in experiment [2] (setting [5]). The IC50 in experiment [3] (setting [6]) came out at 2470 nM.
In the case of `CC(NC(=O)Nc1ccc(S(=O)(=O)Cc2ccc3c(c2)C(F)(F)CNC3)cc1)c1ccccc1` (stereo not drawn) [H1545, 1-(4-(((4,4-difluoro-1,2,3,4-tetrahydroisoquinolin-6-yl)methyl)sulfonyl)phenyl)-3-(1-phenylethyl)urea], the values for the EC50 in experiment [1] (setting [7]) and in experiment [2] (setting [8]) were more than 30000 nM and 19.1 nM, respectively. Also, the IC50 in experiment [3] (setting [9]) is 1720 nM.
`O=C(NCc1cccnc1)Nc1ccc(S(=O)(=O)Cc2ccc3c(c2)CNC3)cc1` [H1301, 1-(4-((isoindolin-5-ylmethyl)sulfonyl)phenyl)-3-(pyridin-3-ylmethyl)urea]: the EC50 was more than 30000 nM in experiment [1] (setting [4]) and 1140 nM in experiment [2] (setting [5]). Also, the IC50 in experiment [3] (setting [6]) was 4450 nM.
Turning to `CC(NC(=O)Nc1ccc(C(=O)Nc2ccc3c(c2)CN(C)C3)cc1)c1ccccc1` (stereo not drawn) [H1480, N-(2-methylisoindolin-5-yl)-4-(3-(1-phenylethyl)ureido)benzamide], the results for the EC50 in experiment [1] (setting [7]) and in experiment [2] (setting [8]) were more than 30000 nM and more than 10000 nM, respectively. The IC50 in experiment [3] (setting [9]) is 24200 nM.
Turning to `C[C@@H](NC(=O)Nc1ccc(S(=O)(=O)Cc2ccc3c(c2)C(F)CNC3)cc1)c1ccccc1` (stereo partly drawn) [H1540, 1-(4-(((4-fluoro-1,2,3,4-tetrahydroisoquinolin-6-yl)methyl)sulfonyl)phenyl)-3-((R)-1-phenylethyl)urea], the EC50 in experiment [1] (setting [7]) is more than 30000 nM; in experiment [2] (setting [8]) it was 206 nM. Besides, the IC50 in experiment [3] (setting [9]) was determined as 7440 nM.
